System: single deposited B-cells
Experiment: co-cultivation of single deposited B-cells with EL-4 B5 feeder cells; IgG in supernatant by ELISA
Type: cell-based, rabbit
Conditions: for frequency per plate of rbIgG-positive wells: 5,000 non-irradiated EL-4 B5 cells per well
Description: Single cell sorted B-cells were cultured in 96-well plates with 200 μl/well EL-4 B5 medium with Pansorbin Cells (SAC) (Calbiochem (Merck), Darmstadt, Deutschland), EL-4 B5 cells (0-5×10^4/well) and rabbit thymocyte supernatant or cytokine mix, respectively, for 7 days at 37° C. in an atmosphere of 5% CO2 in the incubator. B-cell culture supernatants were removed for screening and the cells harvested immediately for variable region gene cloning or frozen at −80° C. in 100 μl RLT buffer (Qiagen, Hilden, Germany).
A mixture of 0.5 μg/ml of biotinylated mouse anti-rabbit IgG antibody (Sigma-Aldrich) and 0.35 μg/ml anti-rabbit IgG HRP conjugate (Sigma-Aldrich) was transferred to 384 well streptavidin coated microtiter plates (MicroCoat Biotechnologie GmbH). Dilutions of B-cell supernatants in PBS supplemented with 0.5% BSA and 0.05% Tween®-20 were added and incubated for 90 min at RT. After repeated washing (6×) with PBST (phosphate buffered saline with 0.2% Tween buffer the plates were developed with BM Blue® HRP substrate solution and color formation was measured by absorbance at 370 nm. A commercial rabbit IgG (Sigma-Aldrich) was used as a calibration standard.

[1] = PMA 0.048 ng/ml, 3 Gy, 15k/Well
[2] = PMA 0.048 ng/ml, 4 Gy, 20k/Well
[3] = PMA 0.048 ng/ml, 5 Gy, 20k/Well
[4] = PMA 0.048 ng/ml, 8 Gy, 20k/Well
[5] = PMA 0.048 ng/ml, 50 Gy, 50k/Well
[6] = PMA 0.109 ng/ml, 3 Gy, 15k/Well
[7] = PMA 0.109 ng/ml, 4 Gy, 20k/Well
[8] = PMA 0.109 ng/ml, 5 Gy, 20k/Well
[9] = PMA 0.109 ng/ml, 8 Gy, 20k/Well
[10] = PMA 0.109 ng/ml, 50 Gy, 50k/Well
[11] = PMA 0.25 ng/ml, 50 Gy, 50k/Well

CCCCCCCCCCCCCC(=O)O[C@@H]1[C@@H](C)[C@@]2(O)[C@@H](C=C(CO)C[C@]3(O)C(=O)C(C)=C[C@@H]23)[C@@H]2C(C)(C)[C@]12OC(C)=O [PMA, phorbol-12-myristate-13-acetate]
influence of PMA concentration on frequency of IgG positive wells or productivity (4 Gy irradiated EL-4 B5 cells, 0.015 ng/ml to 1.3 ng/ml PMA): no influence | effect of the addition of PMA on frequency and productivity (50 Gy irradiated EL-4 B5 cells): concentration dependent effect | Average IgG Productivity of all IgG+ wells [1]: 1.405 µg/mL | IgG+ Frequency [1]: 48.8 % total wells | Average IgG Productivity of all IgG+ wells [2]: 5.465 µg/mL | IgG+ Frequency [2]: 73.8 % total wells | Average IgG Productivity of all IgG+ wells [3]: 5.769 µg/mL | IgG+ Frequency [3]: 71.4 % total wells | Average IgG Productivity of all IgG+ wells [4]: 5.739 µg/mL | IgG+ Frequency [4]: 84.5 % total wells | Average IgG Productivity of all IgG+ wells [5]: 2.821 µg/mL | IgG+ Frequency [5]: 14.3 % total wells | frequency per plate of rbIgG-positive wells (PMA 0.08 ng/ml, 0.031x CM): 39.3 % total | frequency per plate of rbIgG-positive wells (PMA 0.08 ng/ml, 0.1x CM): 44.0 % total | frequency per plate of rbIgG-positive wells (PMA 0.08 ng/ml, 0.31x CM): 51.2 % total | frequency per plate of rbIgG-positive wells (PMA 0.08 ng/ml, 1x CM): 65.5 % total | frequency per plate of rbIgG-positive wells (PMA 0.08 ng/ml, 2x CM): 65.5 % total | Average IgG Productivity of all IgG+ wells [6]: 2.932 µg/mL | IgG+ Frequency [6]: 47.6 % total wells | Average IgG Productivity of all IgG+ wells [7]: 5.772 µg/mL | IgG+ Frequency [7]: 76.2 % total wells | Average IgG Productivity of all IgG+ wells [8]: 5.335 µg/mL | IgG+ Frequency [8]: 83.3 % total wells | Average IgG Productivity of all IgG+ wells [9]: 5.614 µg/mL | IgG+ Frequency [9]: 77.4 % total wells | Average IgG Productivity of all IgG+ wells [10]: 1.942 µg/mL | IgG+ Frequency [10]: 16.7 % total wells | frequency per plate of rbIgG-positive wells (PMA 0.14 ng/ml, 0.031x CM): 35.7 % total | frequency per plate of rbIgG-positive wells (PMA 0.14 ng/ml, 0.1x CM): 52.4 % total | frequency per plate of rbIgG-positive wells (PMA 0.14 ng/ml, 0.31x CM): 54.8 % total | frequency per plate of rbIgG-positive wells (PMA 0.14 ng/ml, 1x CM): 69.0 % total | frequency per plate of rbIgG-positive wells (PMA 0.14 ng/ml, 2x CM): 54.8 % total | frequency per plate of rbIgG-positive wells (PMA 0.25 ng/ml, 0.031x CM): 53.6 % total | frequency per plate of rbIgG-positive wells (PMA 0.25 ng/ml, 0.1x CM): 54.8 % total | frequency per plate of rbIgG-positive wells (PMA 0.25 ng/ml, 0.31x CM): 73.8 % total | frequency per plate of rbIgG-positive wells (PMA 0.25 ng/ml, 1x CM): 65.5 % total | frequency per plate of rbIgG-positive wells (PMA 0.25 ng/ml, 2x CM): 48.8 % total | Average IgG Productivity of all IgG+ wells (PMA 0.25 ng/ml, 3 Gy, 15k/Well): 3.094 µg/mL | IgG+ Frequency (PMA 0.25 ng/ml, 3 Gy, 15k/Well): 47.6 % total wells | Average IgG Productivity of all IgG+ wells (PMA 0.25 ng/ml, 4 Gy, 20k/Well): 4.61 µg/mL | IgG+ Frequency (PMA 0.25 ng/ml, 4 Gy, 20k/Well): 75 % total wells | Average IgG Productivity of all IgG+ wells (PMA 0.25 ng/ml, 5 Gy, 20k/Well): 5.313 µg/mL | IgG+ Frequency (PMA 0.25 ng/ml, 5 Gy, 20k/Well): 84.5 % total wells | Average IgG Productivity of all IgG+ wells (PMA 0.25 ng/ml, 8 Gy, 20k/Well): 5.945 µg/mL | IgG+ Frequency (PMA 0.25 ng/ml, 8 Gy, 20k/Well): 88.1 % total wells | Average IgG Productivity of all IgG+ wells [11]: 1.893 µg/mL | IgG+ Frequency [11]: 20.2 % total wells | frequency per plate of rbIgG-positive wells (PMA 0.43 ng/ml, 0.031x CM): 67.9 % total | frequency per plate of rbIgG-positive wells (PMA 0.43 ng/ml, 0.1x CM): 72.6 % total | frequency per plate of rbIgG-positive wells (PMA 0.43 ng/ml, 0.31x CM): 71.4 % total | frequency per plate of rbIgG-positive wells (PMA 0.43 ng/ml, 1x CM): 50.0 % total | frequency per plate of rbIgG-positive wells (PMA 0.43 ng/ml, 2x CM): 45.2 % total | Average IgG Productivity of all IgG+ wells (PMA 0.57 ng/ml, 3 Gy, 15k/Well): 6.067 µg/mL

From patent publication US11952586B2, “B-cell cultivation method” (Hoffmann-La Roche Inc., priority 2017, dated 2024)
